#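 Grown in 96-well plates, cells were treated for 48 hours with each compound at five concentrations. Insufficient inhibition: endpoint recorded as highest concentration tested. GI50 = concentration required for 50% inhibition of growth. TGI: total growth inhibition.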
# Experiments:
# Assay in all cases: NCI tumour cell line growth inhibition, 48 h
# 786-0 renal = tested on: 786-0 renal
# A498 renal = tested on: A498 renal
# A549 NSCLC = tested on: A549 NSCLC
# ACHN renal = tested on: ACHN renal
# CAKI-1 renal = tested on: CAKI-1 renal
# CCRF-CEM leukemia = tested on: CCRF-CEM leukemia
# COLO 205 colon = tested on: COLO 205 colon
# DLD-1 colon = tested on: DLD-1 colon
# DMS 114 small cell lung = tested on: DMS 114 small cell lung
# DMS 273 small cell lung = tested on: DMS 273 small cell lung
# EKVX NSCLC = tested on: EKVX NSCLC
# HCC-2998 colon = tested on: HCC-2998 colon
# HCT-116 colon = tested on: HCT-116 colon
# HL-60(TB) leukemia = tested on: HL-60(TB) leukemia
# HOP-18 NSCLC = tested on: HOP-18 NSCLC
# HOP-62 NSCLC = tested on: HOP-62 NSCLC
# HOP-92 NSCLC = tested on: HOP-92 NSCLC
# HT29 colon = tested on: HT29 colon
# IGROV1 ovarian = tested on: IGROV1 ovarian
# K-562 leukemia = tested on: K-562 leukemia
# KM12 colon = tested on: KM12 colon
# KM20L2 colon = tested on: KM20L2 colon
# LOX IMVI melanoma = tested on: LOX IMVI melanoma
# LXFL 529 NSCLC = tested on: LXFL 529 NSCLC
# M14 melanoma = tested on: M14 melanoma
# M19-MEL melanoma = tested on: M19-MEL melanoma
# MALME-3M melanoma = tested on: MALME-3M melanoma
# MOLT-4 leukemia = tested on: MOLT-4 leukemia
# NCI-H226 lung = tested on: NCI-H226 lung
# NCI-H23 lung = tested on: NCI-H23 lung
# NCI-H460 lung = tested on: NCI-H460 lung
# NCI-H522 lung = tested on: NCI-H522 lung
# OVCAR-3 ovarian = tested on: OVCAR-3 ovarian
# OVCAR-4 ovarian = tested on: OVCAR-4 ovarian
# OVCAR-5 ovarian = tested on: OVCAR-5 ovarian
# OVCAR-8 ovarian = tested on: OVCAR-8 ovarian
# RPMI-8226 leukemia = tested on: RPMI-8226 leukemia
# RXF 393 renal = tested on: RXF 393 renal
# RXF-631 renal = tested on: RXF-631 renal
# SF-268 CNS = tested on: SF-268 CNS
# SF-295 CNS = tested on: SF-295 CNS
# SF-539 CNS = tested on: SF-539 CNS
# SK-MEL-28 melanoma = tested on: SK-MEL-28 melanoma
# SK-MEL-5 melanoma = tested on: SK-MEL-5 melanoma
# SK-OV-3 ovarian = tested on: SK-OV-3 ovarian
# SN12C renal = tested on: SN12C renal
# SNB-19 CNS = tested on: SNB-19 CNS
# SNB-75 CNS = tested on: SNB-75 CNS
# SNB-78 CNS = tested on: SNB-78 CNS
# SR leukemia = tested on: SR leukemia
# SW-620 colon = tested on: SW-620 colon
# TK-10 renal = tested on: TK-10 renal
# U251 CNS = tested on: U251 CNS
# UACC-257 melanoma = tested on: UACC-257 melanoma
# UACC-62 melanoma = tested on: UACC-62 melanoma
# UO-31 renal = tested on: UO-31 renal
smiles,measurement,setting,value
CCC[CH2][Sn]1([CH2]CCC)[O]C(=O)c2ccc(C)cc2[O]1,GI50,786-0 renal,1000 nM
same,TGI,786-0 renal,2170 nM
same,GI50,A498 renal,367 nM
same,TGI,A498 renal,1060 nM
same,GI50,A549 NSCLC,1570 nM
same,TGI,A549 NSCLC,2970 nM
same,GI50,ACHN renal,404 nM
same,TGI,ACHN renal,1420 nM
same,GI50,CAKI-1 renal,229 nM
same,TGI,CAKI-1 renal,669 nM
same,GI50,CCRF-CEM leukemia,222 nM
same,TGI,CCRF-CEM leukemia,874 nM
same,GI50,COLO 205 colon,465 nM
same,TGI,COLO 205 colon,1610 nM
same,GI50,DLD-1 colon,658 nM
same,TGI,DLD-1 colon,1980 nM
same,GI50,DMS 114 small cell lung,210 nM
same,TGI,DMS 114 small cell lung,587 nM
same,GI50,DMS 273 small cell lung,550 nM
same,TGI,DMS 273 small cell lung,2620 nM
same,GI50,EKVX NSCLC,994 nM
same,TGI,EKVX NSCLC,2230 nM
same,GI50,HCC-2998 colon,1140 nM
same,TGI,HCC-2998 colon,2380 nM
same,GI50,HCT-116 colon,985 nM
same,TGI,HCT-116 colon,2180 nM
same,GI50,HL-60(TB) leukemia,273 nM
same,TGI,HL-60(TB) leukemia,1010 nM
same,GI50,HOP-18 NSCLC,1010 nM
same,TGI,HOP-18 NSCLC,2190 nM
same,GI50,HOP-62 NSCLC,2160 nM
same,TGI,HOP-62 NSCLC,3880 nM
same,GI50,HOP-92 NSCLC,326 nM
same,TGI,HOP-92 NSCLC,1240 nM
same,GI50,HT29 colon,1340 nM
same,TGI,HT29 colon,2970 nM
same,GI50,IGROV1 ovarian,1170 nM
same,TGI,IGROV1 ovarian,2440 nM
same,GI50,K-562 leukemia,247 nM
same,TGI,K-562 leukemia,846 nM
same,GI50,KM12 colon,1060 nM
same,TGI,KM12 colon,2360 nM
same,GI50,KM20L2 colon,1210 nM
same,TGI,KM20L2 colon,2460 nM
same,GI50,LOX IMVI melanoma,184 nM
same,TGI,LOX IMVI melanoma,357 nM
same,GI50,LXFL 529 NSCLC,158 nM
same,TGI,LXFL 529 NSCLC,372 nM
same,GI50,M14 melanoma,584 nM
same,TGI,M14 melanoma,1840 nM
same,GI50,M19-MEL melanoma,322 nM
same,TGI,M19-MEL melanoma,1330 nM
same,GI50,MALME-3M melanoma,327 nM
same,TGI,MALME-3M melanoma,1440 nM
same,GI50,MOLT-4 leukemia,222 nM
same,TGI,MOLT-4 leukemia,621 nM
same,GI50,NCI-H226 lung,1500 nM
same,TGI,NCI-H226 lung,2930 nM
same,GI50,NCI-H23 lung,472 nM
same,TGI,NCI-H23 lung,1760 nM
same,GI50,NCI-H460 lung,1770 nM
same,TGI,NCI-H460 lung,4120 nM
same,GI50,NCI-H522 lung,113 nM
same,TGI,NCI-H522 lung,239 nM
same,GI50,OVCAR-3 ovarian,1180 nM
same,TGI,OVCAR-3 ovarian,2430 nM
same,GI50,OVCAR-4 ovarian,1110 nM
same,TGI,OVCAR-4 ovarian,2430 nM
same,GI50,OVCAR-5 ovarian,1670 nM
same,TGI,OVCAR-5 ovarian,3050 nM
same,GI50,OVCAR-8 ovarian,818 nM
same,TGI,OVCAR-8 ovarian,2100 nM
same,GI50,RPMI-8226 leukemia,210 nM
same,TGI,RPMI-8226 leukemia,760 nM
same,GI50,RXF 393 renal,306 nM
same,TGI,RXF 393 renal,839 nM
same,GI50,RXF-631 renal,138 nM
same,TGI,RXF-631 renal,320 nM
same,GI50,SF-268 CNS,460 nM
same,TGI,SF-268 CNS,1460 nM
same,GI50,SF-295 CNS,1210 nM
same,TGI,SF-295 CNS,2520 nM
same,GI50,SF-539 CNS,518 nM
same,TGI,SF-539 CNS,1730 nM
same,GI50,SK-MEL-28 melanoma,412 nM
same,TGI,SK-MEL-28 melanoma,1450 nM
same,GI50,SK-MEL-5 melanoma,1380 nM
same,TGI,SK-MEL-5 melanoma,2700 nM
same,GI50,SK-OV-3 ovarian,1400 nM
same,TGI,SK-OV-3 ovarian,2750 nM
same,GI50,SN12C renal,511 nM
same,TGI,SN12C renal,1770 nM
same,GI50,SNB-19 CNS,320 nM
same,TGI,SNB-19 CNS,1120 nM
same,GI50,SNB-75 CNS,226 nM
same,TGI,SNB-75 CNS,659 nM
same,GI50,SNB-78 CNS,526 nM
same,TGI,SNB-78 CNS,2340 nM
same,GI50,SR leukemia,255 nM
same,TGI,SR leukemia,1250 nM
same,GI50,SW-620 colon,174 nM
same,TGI,SW-620 colon,400 nM
same,GI50,TK-10 renal,297 nM
same,TGI,TK-10 renal,766 nM
same,GI50,U251 CNS,316 nM
same,TGI,U251 CNS,1160 nM
same,GI50,UACC-257 melanoma,316 nM
same,TGI,UACC-257 melanoma,1490 nM
same,GI50,UACC-62 melanoma,437 nM
same,TGI,UACC-62 melanoma,1570 nM
same,GI50,UO-31 renal,845 nM
same,TGI,UO-31 renal,2080 nM
